{"source": "patent US20080227846A1", "about": "“METHODS OF TREATING JUVENILE TYPE 1 DIABETES MELLITUS” (MUSC Foundation for Research Development, priority 2007, published 2008)", "key": {"[1]": {"tested_on": "macrophages (ED1) and granulocytes (GR) infiltrated into the pancreatic islets", "assay": "Immunohistopathology staining of pancreas for infiltration of macrophages and granulocytes", "settings": "for entry of inflammatory cells into pancreatic tissue: animals of Example 1"}, "[2]": {"tested_on": "NOD mice", "assay": "Prevention of diabetes in NOD mice, daily oral atorvastatin calcium or AICAR", "format": "in vivo, mouse", "settings": "for NOD mice without diabetes compared to saline: FIG. 6, atorvastatin p<0.004, AICAR 10 mg/kg body weight per day orally p<0.001", "from_the_text": "The non-obese diabetic (NOD) mouse model is the best-studied animal model of autoimmune diabetes. […] Spontaneous diabetes occurs in female NOD mice and is preceded by insulitis, a lymphocytic infiltration of the pancreatic islets, which is the major histologic event occurring by 5-8 weeks in the NOD mouse (Chatenoud et al., Proc. Natl. Acad. Sci. 91:123-127, 1994).\nIn these experiments, 4-week old female NOD mice were obtained from Jackson Laboratories (JAX strain no 001976; NOD/LtJ strain) and maintained in a sterile environment. Drug treatment began at 4-weeks of age, prior to inflammatory disease onset. Under normal conditions, diabetes begins appearing in NOD mice by 12-weeks in untreated animals, with 90-100% of the mice developing the disease by 30-weeks.\nThe animals were divided into three groups of 23 animals each. Group 1 was the control and received vehicle only by oral lavage of physiological saline daily. Groups 2 and 3 received atorvastatin calcium (Lipitor®) at a dose of 5 or 10 mg/kg body weight daily, respectively. Blood glucose (BG) was measured in each animal three-times per week. […] Also, two non-diabetic animals from each group were sacrificed on days 50, 70, and 80 for histological and cytokine analyses (not included in FIG. 1).\nIn addition to statins, AICAR was also administered to NOD mice at 10 mg/kg body weight per day orally."}, "[3]": {"tested_on": "NOD mice", "assay": "Atorvastatin calcium and AICAR, individually and in combination, blood glucose in NOD mice", "format": "in vivo, mouse", "settings": "FIG. 8"}, "[4]": {"tested_on": "iNOS, TNF-α, and IFN-γ mRNA", "assay": "Quantitative real-time PCR of pancreas, pro-inflammatory cytokines and iNOS", "format": "in vivo, mouse", "settings": "FIG. 9, vs saline-treated mice"}, "[5]": {"settings": "Palomer et al., Diabetologia 48:1671-1673 (2005); cited from earlier work"}, "[6]": {"tested_on": "iNOS and TNF-α protein", "assay": "Western blot of pancreas tissue", "format": "in vivo, mouse", "settings": "vs saline-treated diabetic mice"}, "[7]": {"tested_on": "juvenile patients newly diagnosed with T1DM", "assay": "Statin treatment of juvenile patients newly diagnosed with T1DM, C-peptide", "format": "in vivo, human", "settings": "patient", "procedure": "Two juvenile patients newly diagnosed with T1DM were treated with a statin in order to evaluate whether the diabetic condition in the juvenile patient can be stabilized or reversed by statin treatment. A human patient who was positive for insulin antibodies was identified as having new onset T1DM. […] The patient was treated with 10 mg/day for the first two weeks after diagnosis, and 20 mg/day thereafter.\nA human patient who was positive for insulin antibodies was identified as having new onset T1DM. The patient began treatment with 20 mg/day atorvastatin calcium (Lipitor®) at the time (the day of) diagnosis of T1DM. […] Normally, within 12 months after diagnosis a child would have been expected to drop from 100% of the insulin the patient started with to 14.0%±7% (s.d.) of the insulin the child started with."}, "[8]": {"tested_on": "NOD mice", "assay": "Simvastatin plus insulin, blood glucose in NOD mice", "format": "in vivo, mouse", "procedure": "In another experiment, simvastatin was administered to NOD mice, and the animals were supplemented with insulin in an attempt to keep the animals from developing diabetic ketoacidosis. The study was designed to examine whether simvastatin at 2 mg/kg/day and 5 mg/kg/day protected islet cells from damage during early phases of diabetes. […]. The animals were divided into four groups randomly. Group 1 was the control and received oral lavage of physiological saline daily, plus insulin as set forth above. Groups 2 and 3 received simvastatin at a dose of 2 mg/kg/day or 5 mg/kg/day, respectively, along with insulin as set forth above. Group 4 received no treatment with either simvastatin or insulin. Blood glucose (BG) was measured in each animal approximately once a week, unless the glucose level of an animal began to fluctuate, at which time glucose level were measured every other day. This study lasted approximately four months. The last column of Table 1 is a list of measurements of glucose levels in all animals treated with simvastatin."}, "[9]": {"tested_on": "new-onset T1DM patients", "settings": "cited from earlier work"}}, "note": "“And” between values parts separate entries of the source, which are not always exact repeats. Equal entries are not always repeated."}
{"compound": "NC(=O)c1ncn([C@@H]2O[C@H](CO)[C@@H](O)[C@H]2O)c1N", "note": "[AICAR, 5-aminoimidazole-4-carboxamide ribonucleoside]", "values": [{"measurement": "entry of inflammatory cells into pancreatic tissue", "setting": "[1]", "value": "inflammatory cells are not entering pancreatic tissue"}, {"measurement": "NOD mice without diabetes compared to saline", "setting": "[2]", "value": "significantly different"}, {"measurement": "mean BG vs control Group 1", "setting": "[3]; Group 4, 0.5 mg/gm body weight daily oral, p=0.025 by log-rank test", "value": "lower"}, {"measurement": "mRNA expression of iNOS, TNF-α, and IFN-γ in pancreas", "setting": "[4]", "value": "elevated in saline-treated mice"}]}
{"compound": "CC(C)c1c(C(=O)Nc2ccccc2)c(-c2ccccc2)c(-c2ccc(F)cc2)n1CC[C@@H](O)C[C@@H](O)CC(=O)O", "note": "[atorvastatin calcium]", "values": [{"measurement": "entry of inflammatory cells into pancreatic tissue", "setting": "[1]", "value": "inflammatory cells are not entering pancreatic tissue"}, {"measurement": "immunostaining for ED1 and GR1 marker proteins in pancreas", "setting": "[1]; vs intense staining in saline-treated mice", "value": "No immunostaining was observed"}, {"measurement": "mean BGs", "setting": "[2]; 10 mg/kg daily oral, s.e.=15, n=277, p<0.001 vs saline 219", "value": 182.5}, {"measurement": "NOD mice without diabetes compared to saline", "setting": "[2]", "value": "effective"}, {"measurement": "protection from development of auto-immune diabetes", "setting": "[2]; NOD mice, 5 or 10 mg/kg daily", "value": "partially protects"}, {"measurement": "number of surviving disease-free animals vs control group", "setting": "[2]; after 104 days of treatment, 5 or 10 mg/kg daily, FIG. 1", "value": "greater"}, {"measurement": "number of animals that developed diabetes", "setting": "[2]; during treatment, FIG. 1", "value": "reduction in the number of animals that developed diabetes"}, {"measurement": "effect on preventing diabetes", "setting": "[5]", "value": "no effect on preventing diabetes"}, {"measurement": "expression of iNOS and TNF-α protein in pancreas", "setting": "[6]", "value": "increased expression of iNOS and TNF-α protein in saline-treated diabetic mice compared with atorvastatin calcium-treated mice"}, {"measurement": "mean BG vs control Group 1", "setting": "[3]; Group 2, 5 mg/kg body weight daily oral, day 59-109 after weaning", "value": "lower"}, {"measurement": "mean BG vs control Group 1", "setting": "[3]; Group 3, 10 mg/kg body weight daily oral, day 59-109 after weaning", "value": "lower"}, {"measurement": "mRNA expression of iNOS, TNF-α, and IFN-γ in pancreas", "setting": "[4]", "value": "elevated in saline-treated mice"}, {"measurement": "C-peptide", "setting": "[7]; 10 mg/day two weeks then 20 mg/day, six months, FIG. 14", "value": "marked increase in C-peptide"}, {"measurement": "rise of C-peptide levels", "setting": "[7]; 20 mg/day, after 50 days of treatment", "value": 39.25, "unit": "%"}, {"measurement": "C-peptide level", "setting": "[7]; 20 mg/day, after 50 days of treatment, initial 35.8 units", "value": 49.85, "unit": "units"}, {"measurement": "increase of insulin over the original amount of C-peptide", "setting": "[7]; 20 mg/day, over a period of 24 months, FIG. 15", "value": 240, "unit": "%"}, {"measurement": "net increase of the amount of insulin vs expected", "setting": "[7]; expected […]±7% of starting insulin within 12 months", "value": 600, "unit": "%"}]}
{"compound": "CCC(C)(C)C(=O)O[C@H]1C[C@@H](C)C=C2C=C[C@H](C)[C@H](CC[C@@H]3C[C@@H](O)CC(=O)O3)[C@H]21", "note": "[simvastatin]", "values": [{"measurement": "average blood glucose level", "setting": "[8]; Group 2, simvastatin 2 mg/kg/day plus insulin, 36 determinations, p=0.05 vs saline plus insulin", "value": "143.6 ± 26.5", "unit": "mg/dL"}, {"measurement": "average blood glucose level", "setting": "[8]; Group 2, simvastatin 2 mg/kg/day plus insulin, 36 determinations, p=0.05 vs saline plus insulin, listed as Simv.", "value": 143.6, "unit": "mg/dL"}, {"measurement": "average blood glucose level", "setting": "[8]; Group 3, simvastatin 5 mg/kg/day plus insulin, 28 determinations, p<0.02 vs saline plus insulin", "value": "134.5 ± 15.7", "unit": "mg/dL"}, {"measurement": "average blood glucose level", "setting": "[8]; Group 3, simvastatin 5 mg/kg/day plus insulin, 28 determinations, p<0.02 vs saline plus insulin, listed as Simv.", "value": 134.5, "unit": "mg/dL"}, {"measurement": "average blood glucose level", "setting": "[8]; Simvastatin Combined, 64 determinations", "value": "139.7 mg/dL and 139.6563 mg/dL"}]}
{"compound": "TRX4: anti-CD3 monoclonal antibody with orphan drug status", "values": [{"measurement": "adverse effect associated with therapy", "setting": "[9]; six-day intravenous infusion", "value": "moderate “flu-like” syndrome"}]}
{"compound": "hOKT3y1(ala-ala): modified, nonmitogenic, humanized form of the anti-CD3 monoclonal antibody", "values": [{"measurement": "patients who maintained the same or improved endogenous insulin secretion", "setting": "[9]; one year after initial 14-day course, 25% in the control group, Herold et al. 2002", "value": 75, "unit": "%"}]}
